Molecules are shown by their SMILES. The source made the active and inactive calls. The rule behind the calls is not given here.

As a reminder, the IC50 is the point on the concentration scale where inhibition reaches its midpoint. A low value points to higher potency. For orientation: ED50 means the dose at which the effect has come halfway, by size or by number of responders. Low readings indicate greater potency, high ones weaker potency.

Test [1] has as its system Plasmodium falciparum. The test can be described thus: Antimalarial activity against Plasmodium falciparum 3D7A infected erythrocytes by [3H]hypoxanthine uptake. The test is classed as functional, organism-based.
Test [2] deals with Plasmodium falciparum. The test can be described thus: Antimalarial activity against Plasmodium falciparum T9-96 infected Rhesus positive human erythrocytes by [3H]hypoxanthine uptake. The test is classed as functional, organism-based.
Test [3] concerns Plasmodium yoelii. The test can be described thus: Antimalarial activity as reduced parasitaemia against Plasmodium yoelii YM in CD1 mice (Mus musculus) after 7 peroral doses over 4 days. The test is classed as functional. As to conditions: po, 96 h.
Test [4] has as its system Plasmodium yoelii. The test can be described thus: Antimalarial activity as reduced parasitaemia against Plasmodium yoelii YM in CD1 mice (Mus musculus) given a single peroral dose. The test is classed as functional. As to conditions: po.
Test [5] deals with Plasmodium falciparum. The test can be described thus: Antimalarial activity against Plasmodium falciparum FCR3-A infected erythrocytes as [3H]hypoxanthine incorporation. Format: functional, organism-based.
Test [6] concerns Plasmodium falciparum. The test can be described thus: Antimalarial activity as parasite elimination against Plasmodium falciparum infected Aotus monkeys at 10 mg/kg/day for 7 days. The test is classed as functional, organism-based.

Regarding `Cc1[nH]c(C(F)(F)F)c(Br)c(=O)c1-c1ccc(Oc2ccc(OC(F)(F)F)cc2)cc1`, in the test on Plasmodium falciparum [1], the half-inhibitory concentration (IC50) was over 1000 nM.

The molecule `Cc1cc(=O)c(-c2ccc(Oc3ccc(C(F)(F)F)cc3)cc2)c(C)[nH]1` showed an IC50 in the test with Plasmodium falciparum [2] of 500 nM. The ED50 in the test on Plasmodium yoelii [3] was 1.3 mg/kg.

For the molecule `Cc1[nH]c(C)c(-c2ccc(Oc3ccc(OC(F)(F)F)cc3)cc2)c(=O)c1Cl`, the IC50 was 30 nM in the test with Plasmodium falciparum [2], 5 nM in the test on Plasmodium falciparum [1] and 1 nM in the test with Plasmodium falciparum [5]. Also, the results for the 50% effective dose (ED50) in the test with Plasmodium yoelii [3] and in the test on Plasmodium yoelii [4] were 0.2 mg/kg and 0.4 mg/kg, respectively. Moreover, the outcome in the test on Plasmodium falciparum [6] was Active.

In turn, `Cc1[nH]c(C)c(-c2ccc(Oc3cccc(Cl)c3)cc2)c(=O)c1Cl` returned a half-maximal inhibitory concentration (IC50) in the test on Plasmodium falciparum [2] of 30 nM. For the same molecule, the ED50 in the test with Plasmodium yoelii [3] is over 5 mg/kg.

`COc1c(C)[nH]c(C)c(-c2ccc(Oc3cccc(C(F)(F)F)c3)cc2)c1=O` yielded an IC50 with Plasmodium falciparum [1] of 300 nM.

`Cc1[nH]c(C)c(-c2ccc(Oc3ccc(F)cc3)cc2)c(=O)c1Br` showed a half-inhibitory concentration (IC50) with Plasmodium falciparum [2] of 40 nM. For the same molecule, the median effective dose (ED50) in the test with Plasmodium yoelii [3] is 0.6 mg/kg.

As for `Cc1cc(=O)c(-c2ccc(Oc3ccc(OC(F)(F)F)cc3)cc2)c(C)[nH]1`, the 50% inhibitory concentration (IC50) in the test on Plasmodium falciparum [2] and in the test on Plasmodium falciparum [1] was 160 nM in each case. Moreover, the ED50 with Plasmodium yoelii [3] is over 5 mg/kg.

Take `Cc1[nH]c(C)c(-c2ccc(Oc3ccc(Cl)cc3)cc2)c(=O)c1Br`: the IC50 in the test with Plasmodium falciparum [2] was 40 nM. Besides, the ED50 came out at 0.3 mg/kg in the test on Plasmodium yoelii [3] and 5 mg/kg in the test with Plasmodium yoelii [4].

For the molecule `Cc1[nH]c(C)c(-c2ccc(-c3ccc(Cl)cc3)cc2)c(=O)c1Cl`, the IC50 with Plasmodium falciparum [2] was 400 nM. In the test with Plasmodium yoelii [3], this molecule displayed an ED50 of 0.7 mg/kg.

In the test with Plasmodium falciparum [2], `Cc1[nH]c(C)c(-c2ccc(Oc3ccc(C(F)(F)F)cc3)cc2)c(=O)c1Cl` gave an IC50 of 60 nM. The molecule further displayed an ED50 in the test on Plasmodium yoelii [3] of 0.6 mg/kg.

In turn, `Cc1[nH]c(C)c(-c2ccc(Cl)cc2)c(=O)c1Cl` showed an IC50 in the test on Plasmodium falciparum [2] of 2500 nM. The molecule also gave an ED50 in the test with Plasmodium yoelii [3] of 20 mg/kg.

In the case of `CCN(CC)CCCC(C)Nc1ccnc2cc(Cl)ccc12` (centres undefined) [CHLOROQUINE], it took a dose of 1.8 mg/kg to reach the 50% effect level with Plasmodium yoelii [3] (ED50).

As to `Cc1[nH]cc(-c2ccc(Oc3ccc(OC(F)(F)F)cc3)cc2)c(=O)c1Br`, the concentration for half-maximal inhibition (IC50) with Plasmodium falciparum [1] came to 200 nM.

In the test on Plasmodium falciparum [1], `Cc1[nH]c(C)c(-c2ccc(Oc3ccc(OC(F)(F)F)cc3)cc2)c(=O)c1CN1CCCC1` displayed an IC50 of 1290 nM.

`Cc1[nH]c(C)c(-c2ccc(Oc3ccc(Cl)cc3)cc2)c(=O)c1Cl` showed a 50% inhibitory concentration (IC50) in the test with Plasmodium falciparum [2] of 60 nM. In the test with Plasmodium yoelii [3], this molecule returned an ED50 of 0.6 mg/kg.

The molecule `Cc1[nH]c(C)c(-c2ccc(Oc3cccc(C(F)(F)F)c3)cc2)c(=O)c1Br` displayed an IC50 in the test with Plasmodium falciparum [2] of 30 nM. In addition, the median effective dose (ED50) stood at 0.6 mg/kg in the test with Plasmodium yoelii [3] and 3.6 mg/kg in the test with Plasmodium yoelii [4].

On to `Cc1cc(=O)c(-c2ccc(Oc3ccc(Cl)cc3)cc2)c(C)n1O`, for which it took 2200 nM to reach half-maximal inhibition in the test with Plasmodium falciparum [2] (IC50). Besides, the ED50 in the test on Plasmodium yoelii [3] was over 1 mg/kg.

In turn, `CCCCCCCCc1c(C)[nH]c(C)c(Cl)c1=O` showed an IC50 in the test on Plasmodium falciparum [2] of 4000 nM. For the same molecule, the ED50 in the test with Plasmodium yoelii [3] was over 60 mg/kg.

In turn, `Cc1[nH]cc(Br)c(=O)c1-c1ccc(Oc2ccc(OC(F)(F)F)cc2)cc1` returned an IC50 in the test on Plasmodium falciparum [1] of 110 nM. In other words, the sub-micromolar range.

`O=C1C(O)=C([C@H]2CC[C@H](c3ccc(Cl)cc3)CC2)C(=O)c2ccccc21` [ATOVAQUONE]: the IC50 in the test on Plasmodium falciparum [2] was 3 nM; in the test on Plasmodium falciparum [5], 1360 nM. Further, the 50% effective dose (ED50) in the test with Plasmodium yoelii [3] is 0.03 mg/kg.

`Cc1[nH]c(C)c(-c2ccc(Oc3cccc(Cl)c3)cc2)c(=O)c1Br` registered an IC50 in the test with Plasmodium falciparum [2] of 30 nM. Also, the ED50 in the test on Plasmodium yoelii [3] was found to be 3.9 mg/kg.

`Cc1[nH]c(C)c([C@H]2CC[C@H](c3ccc(Cl)cc3)CC2)c(=O)c1Cl`: in the test on Plasmodium falciparum [2], the IC50 worked out at 50 nM. The same molecule returned an ED50 with Plasmodium yoelii [3] of 0.6 mg/kg.

Molecule `Cc1[nH]c(C)c(-c2ccccc2)c(=O)c1Cl` had an IC50 in the test on Plasmodium falciparum [2] of 11000 nM. The same molecule showed an ED50 with Plasmodium yoelii [3] of 22 mg/kg.

Molecule `Cc1[nH]c(C)c([N+](=O)[O-])c(=O)c1-c1ccc(Oc2ccc(OC(F)(F)F)cc2)cc1` showed a concentration for half-maximal inhibition (IC50) with Plasmodium falciparum [1] of 30 nM.

In the test with Plasmodium falciparum [1], `Cc1[nH]c(C)c(-c2cccc(Oc3ccc(OC(F)(F)F)cc3)c2)c(=O)c1Br` showed a half-inhibitory concentration (IC50) of 7 nM.

As for `Cc1[nH]c(C)c(C(F)(F)F)c(=O)c1-c1ccc(Oc2ccc(OC(F)(F)F)cc2)cc1`, the IC50 in the test with Plasmodium falciparum [1] turned out to be 30 nM.

For the molecule `Cc1[nH]c(C)c(-c2ccc(Oc3cccc(C(F)(F)F)c3)cc2)c(=O)c1Cl`, the IC50 was 30 nM in the test on Plasmodium falciparum [2], 5 nM in the test on Plasmodium falciparum [1] and 2.5 nM with Plasmodium falciparum [5]. Moreover, the 50% effective dose (ED50) in the test with Plasmodium yoelii [3] and in the test with Plasmodium yoelii [4] was 0.2 mg/kg in each case.

`Cc1[nH]c(C)c(-c2ccc(Oc3ccc(OC(F)(F)F)cc3)cc2)c(=O)c1Br`: the concentration for half-maximal inhibition (IC50) with Plasmodium falciparum [2] amounted to 30 nM; with Plasmodium falciparum [1] it was 8 nM. For the same molecule, the ED50 with Plasmodium yoelii [3] was 0.3 mg/kg; with Plasmodium yoelii [4], 0.2 mg/kg. For the same molecule, in the test with Plasmodium falciparum [6], the result was Active.

With `Cc1c(Br)c(=O)c(-c2ccc(Oc3ccc(Cl)cc3)cc2)c(C)n1O`, it took 450 nM to reach half-maximal inhibition in the test with Plasmodium falciparum [2] (IC50). The ED50 in the test with Plasmodium yoelii [3] turned out to be 1 mg/kg.

Molecule `O=c1c(-c2ccc(Oc3ccc(OC(F)(F)F)cc3)cc2)c[nH]c(C(F)(F)F)c1Br` came in with a half-maximal inhibitory concentration (IC50) in the test on Plasmodium falciparum [1] of over 1000 nM.

In the test with Plasmodium falciparum [2], `Cc1[nH]c(C)c(-c2ccc(Oc3ccc(C(F)(F)F)cc3)cc2)c(=O)c1Br` showed a 50% inhibitory concentration (IC50) of 30 nM. The median effective dose (ED50) in the test with Plasmodium yoelii [3] was determined as 0.3 mg/kg; in the test with Plasmodium yoelii [4] it was 1.1 mg/kg.

As for `Cc1[nH]c(C)c(-c2ccccc2Oc2ccc(OC(F)(F)F)cc2)c(=O)c1Br`, in the test with Plasmodium falciparum [1], the IC50 was determined as 400 nM. This counts as sub-micromolar.

With `Cc1[nH]c(C)c(-c2ccc(Oc3ccccc3)cc2)c(=O)c1Br`, the 50% inhibitory concentration (IC50) in the test on Plasmodium falciparum [2] was 150 nM. The 50% effect level in the test on Plasmodium yoelii [3] (ED50) was put at a dose of 4 mg/kg.

For `Cc1nc(C)c(Cl)c(O)c1Cl` [CLOPIDOL], in the test on Plasmodium falciparum [2], the concentration for half-maximal inhibition (IC50) is 20000 nM. Moreover, in the test on Plasmodium yoelii [3], the 50% effective dose (ED50) came out at 40 mg/kg.

For `Cc1cc(=O)c(-c2ccc(Oc3ccc(Cl)cc3)cc2)c(C)[nH]1`, in the test on Plasmodium falciparum [2], the IC50 was 250 nM. Besides, in the test on Plasmodium yoelii [3], the ED50 was found to be 2.5 mg/kg.

The record behind these values is ChEMBL document CHEMBL1150240, “Synthesis and structure-activity relationships of 4-pyridones as potential antimalarials” (J Med Chem, 2008).
